Source: paper PMC4792926, “G9a-mediated methylation of ERα links the PHF20/MOF histone acetyltransferase complex to hormonal gene expression” (Nature Communications, 2016)
Ends that are not written are not given here.

How the values were obtained:
[1] = test system: H4K16ac on ERα target gene promoters; experiment: Histone H4K16ac ChIP-qPCR in MCF-7 cells; format: cell-based, human
Description: (§1) Human MCF-7, T-47D, U2OS and HEK293T cells (ATCC) were cultured in DMEM (Cellgro) supplemented with 10% fetal bovine serum (FBS, Sigma). For G9a inhibitor treatment, BIX-01294 (Sigma) was added to the medium, at the indicated concentrations, 24 h before the cells were collected. For shRNA knockdown, 293T cells were co-transfected with pMD2.G and pPAX2 (Addgene) together with pLKO-shRNA constructs or a non-targeting pLKO-shRNA (pLKO-shCtrl). Viral supernatants were harvested after 48 h. For infections, MCF-7 or T-47D cells were incubated with viral supernatants in the presence of 8 μg ml^−1 polybrene. After 48 h, puromycin (2 μg ml^−1) was added to the DMEM. Cells were grown, with selection for 5–7 days to select for stable knockdown cells before oestrogen treatment. For oestrogen treatment, cells were starved in phenol red-free DMEM supplemented with 10% charcoal-stripped FBS (Sigma) for 3–4 days, and 10 nM 17β-estradiol (Sigma) or ethanol (vehicle) were added to the medium (3 or 6 h for gene expression studies, and 15 and 45 min for ChIP experiments) before the cells were collected.
(§2) ChIP analysis was performed essentially as described previously. Briefly, cells were crosslinked with 1% formaldehyde for 10 min at room temperature, and the reaction was stopped with 125 mM glycine. Nuclei were isolated by resuspending the cells in swelling buffer containing 5 mM PIPES, pH 8.0, 85 mM KCl, 1% NP-40 and complete protease inhibitors for 20 min at 4 °C. The isolated nuclei were resuspended in nuclei lysis buffer (50 mM Tris, pH 8.0, 10 mM EDTA, 1% SDS) and sonicated using a Bioruptor Sonicator (Diagenode). Samples were immunoprecipitated with 2–4 μg of the appropriate antibodies overnight at 4 °C. Immunoprecipitates were washed twice with dialysis buffer (50 mM Tris pH 8.0, 2 mM EDTA, 0.2% Sarkosyl) and four times with IP wash buffer (100 mM Tris, pH 8.0, 500 mM LiCl, 1% NP-40 and 1% deoxycholic acid sodium salt). After reverse crosslinking was performed, the DNA was eluted and purified using a PCR purification kit (Qiagene). The primer sequences used for ChIP analyses are listed in Supplementary Table 4.

[2] = test system: ERα target genes (GREB1, PR, TFF1); experiment: qPCR of E2-induced ERα target gene expression in T-47D cells; format: cell-based, human; details: 10 nM E2, 3 or 6 h; G9a-depleted T-47D
Description: as §1, with “For oestrogen treatment, cells were starved in phenol red-free DMEM supplemented with 10% charcoal-stripped FBS (Sigma) for 3–4 days, and 10 nM 17β-estradiol (Sigma) or ethanol (vehicle) were added to the medium (3 or 6 h for gene expression studies, and 15 and 45 min for ChIP experiments) before the cells were collected.” left out
Reverse transcription and real-time PCR were performed as described previously. mRNA was prepared using the RNeasy Plus kit (Qiagen) and reverse transcribed using the First Strand Synthesis kit (Invitrogen). Quantitative real-time RT–PCR (qPCR) was performed on an ABI 7500-FAST Sequence Detection System using the Power SYBR Green PCR Master Mix (Applied Biosystems). Gene expression was calculated following normalization to GAPDH levels using the comparative Ct (cycle threshold) method and is shown as ‘Fold' relative to the expression of each gene in the control cells without E2 treatment that was arbitrarily set as ‘1'. […]

ERαK235me2 = experiment: Immunofluorescence of ERαK235me2 in MCF-7 cells; format: cell-based, human; details: 10 nM 17β-estradiol, 45 min; E2-deprived MCF-7
Description: MCF-7 cells were E2-depleted for 3 days and treated with 10 nM 17β-estradiol or ethanol for 45 min. Cells were then fixed in 4% formaldehyde, washed and permeabilized in 0.5% Triton X-100 on ice for 10 min. Cells were then blocked in 3% BSA, incubated with primary antibodies in 3% BSA for 2 h, washed, and probed with fluorescein-conjugated secondary antibodies in 3% BSA for 1 h. Cells on the slide were then washed, covered with mounting medium (with DAPI) and observed using an Olympus confocal microscope FluoView FV1000.
(d) ERαK235, but not K303, is required for the coactivator function of G9a in an estrogen response element- (ERE) driven luciferase assay. U2OS cells were cotransfected with G9a, NCOA2 and ERα (WT, K235R, or K303R) together with an ERE-Firefly luciferase and a Renilla luciferase, and the luciferase activity was determined 24 hrs after E2 treatment.
(e) G9a has a catalytic activity-dependent and independent coactivator activity of ERα. U2OS cells were cotransfected with ERα, NCOA2 and […] (WT or H1113K) together with an ERE-Firefly luciferase and a Renilla luciferase, and the luciferase activity was determined as described in the Method section.
(f) Both the E2-dependent and E2-independent ERα coactivator functions of G9a require the ERαK235 residue. […]

MCF-7 cells = experiment: RNA-seq in MCF-7 cells ±E2; format: cell-based, human; details: 10 nM E2, 3 h
Description: as §1, with “For oestrogen treatment, cells were starved in phenol red-free DMEM supplemented with 10% charcoal-stripped FBS (Sigma) for 3–4 days, and 10 nM 17β-estradiol (Sigma) or ethanol (vehicle) were added to the medium (3 or 6 h for gene expression studies, and 15 and 45 min for ChIP experiments) before the cells were collected.” left out
RNA-seq samples were sequenced using the Illumina Hiseq 2000, and raw reads were mapped to the human reference genome (hg19) and transcriptome using the RNA-seq unified mapper. Read counts for each transcript were calculated using HTseq v0.6.1 using default parameters. […] For the PHF20 knockdown data set, the common dispersion and tag wise dispersion were calculated using the edgeR ‘estimateCommonDisp' and ‘estimateTagwise-Disp' functions, respectively. […]

[3] = test system: ERα on GREB1 and PR promoters; experiment: ERα ChIP-qPCR in MCF-7 cells; format: cell-based, human; details: E2, 15 and 45 min
Description: as §1
as §2, with “The primer sequences used for ChIP analyses are listed in Supplementary Table 4.” left out

[4] = test system: ERα target genes (GREB1, PR, TFF1); experiment: qPCR of E2-induced ERα target gene expression in MCF-7 cells; format: cell-based, human; details: for fold induction of GREB1, PR and TFF1: control (shCtrl) MCF-7, relative to untreated cells
Description: as §1
Reverse transcription and real-time PCR were performed as described previously. mRNA was prepared using the RNeasy Plus kit (Qiagen) and reverse transcribed using the First Strand Synthesis kit (Invitrogen). Quantitative real-time RT–PCR (qPCR) was performed on an ABI 7500-FAST Sequence Detection System using the Power SYBR Green PCR Master Mix (Applied Biosystems). Gene expression was calculated following normalization to GAPDH levels using the comparative Ct (cycle threshold) method and is shown as ‘Fold' relative to the expression of each gene in the control cells without E2 treatment that was arbitrarily set as ‘1'. The primer sequences used for RT–PCR are listed in Supplementary Table 5.

53BP1 Tudor = experiment: Chromatin-associated domain array (CADOR 5.0), 53BP1 Tudor; format: binding; details: biotinylated peptide on CADOR 5.0; K235 methylation-dependent
Description: (§3) For peptide pulldown assays, 1 μg of biotinylated histone and ERα peptides with or without methylation were incubated with 1 μg GST-PHF20 Tudor in binding buffer (50 mM Tris-HCl, pH 7.5, 300 mM NaCl, 0.1% NP-40 and 1 mM PMSF) for overnight. Streptavidin beads (GE Healthcare) were added into the mixture and incubated for 1 h with rotation. The beads were then washed three times, and analysed by SDS−PAGE and western blotting. For the protein domain array, the CADOR 5.0 protein domain array was probed with biotinylated ER peptides as described previously. The protein domains spotted on the CADOR 5.0 array are listed in the Supplementary Fig. 5. […]
(§4) Recombinat Proteins Construct Sources a - Cheryl Arrowsmith d - Jiemin W ong g - Albert Jeltsch j - Judd Rice n - Alla Grishok b - Subhashini Sadasivem e - Or Gozani h - Yi Zhang k - Marc Timmers o - Olli Silvennoinen c - Jocelyn Coté f - Thomas Jenuwein i - Adrian Bird l - Michelle Barton p - Logan Donaldson […]
(§5) Supplementary Figure 5. Domain layout of the Chromatin-Associated Domain Array […]
(§6) (1 picture or pasted object on this page, not shown here)

S. pombe SPF30 Tudor = experiment: Chromatin-associated domain array (CADOR 5.0), SPF30 Tudor; format: binding; details: biotinylated peptide on CADOR 5.0; K235 methylation-dependent
Description: as §3, §4, §5, §6

[5] = test system: PHF20/PHF20L Tudor domains; experiment: Chromatin-associated domain array (CADOR 5.0), PHF20/PHF20L Tudors; format: binding; details: biotinylated peptide on CADOR 5.0; K235 methylation-dependent
Description: as §3, §4, §5, §6

[6] = test system: PHF20 Tudor W97A and Y103A mutants; experiment: Peptide pull-down with PHF20 Tudor mutants; format: binding, human; details: W97A and Y103A mutants of PHF20 Tudor
Description: (§7) The pGEX constructs encoding human G9a, ERα and ERα fragments including AF1 (aa 1–190), DBD (aa 175–250), hinge (aa 251–310), DBD+hinge (aa 175–310), LBD (aa 305–596) and the second Tudor domain of PHF20 (aa 58–148) were expressed in E. coli Rosetta (DE3) pLysS cells. After induction with IPTG (0.5 mM) for 16–18 h at 18 °C, cells were collected by centrifugation at 5,000g, lysed by sonication and purified using Glutathione Sepharose 4B beads (GE Healthcare). For the NMR titration assays, PHF20 Tudor was expressed in the ^15NH4Cl-supplemented (Sigma) minimal media, and the GST tag was cleaved with PreScission protease, and the cleaved protein was concentrated using Millipore concentrators (Millipore).
(§8) For peptide pulldown assays, 1 μg of biotinylated histone and ERα peptides with or without methylation were incubated with 1 μg GST-PHF20 Tudor in binding buffer (50 mM Tris-HCl, pH 7.5, 300 mM NaCl, 0.1% NP-40 and 1 mM PMSF) for overnight. Streptavidin beads (GE Healthcare) were added into the mixture and incubated for 1 h with rotation. The beads were then washed three times, and analysed by SDS−PAGE and western blotting. For the protein domain array, the CADOR 5.0 protein domain array was probed with biotinylated ER peptides as described previously. The protein domains spotted on the CADOR 5.0 array are listed in the Supplementary Fig. 5.

PHF20 Tudor [7] = experiment: Peptide pull-down with GST-PHF20 Tudor; format: binding, human; details: 1 μg biotinylated peptide, 1 μg GST-PHF20 Tudor, 50 mM Tris-HCl pH 7.5, 300 mM NaCl, 0.1% NP-40, overnight
Description: as §7, §8

PHF20 Tudor [8] = experiment: 1H,15N HSQC NMR titration of PHF20 Tudor; format: binding, human
Description: as §7
The ^1H,^15N HSQC spectra of 0.2 mM uniformly ^15N-labelled PHF20 Tudor (in 25 mM Tris-HCl, pH 7.5 buffer, 150 mM NaCl, 5 mM dithiothreitol and ∼8% D2O) were collected at 298 K on a Varian INOVA 600 MHz spectrometer. Binding was monitored by titrating unmodified ERα and ERαK235me2 peptides (aa 228–239) against the PHF20 Tudor domain. NMR data were processed and analysed with NMRPipe and NMRDraw as previously described. NMR assignments for PHF20 Tudor were taken from the Biological Magnetic Resonance Data Bank (BMRB 17673)[31].

## C[C@]12CC[C@@H]3c4ccc(O)cc4CC[C@H]3[C@@H]1CC[C@@H]2O [E2, 17β-estradiol]
[1]; E2, 15 and 45 min, G9a-depleted MCF-7
  E2-dependent H4K16ac and ERα on GREB1 and PR promoters (H4K16ac): markedly reduced
[1]; E2, 15 and 45 min, PHF20-depleted MCF-7
  E2-dependent increase of H4K16ac on GREB1 and PR promoters: greatly diminished
[1]; E2, 15 and 45 min, control MCF-7
  H4K16ac levels on GREB1 and PR promoters: dramatic increase in H4K16ac levels
[1]; E2, MCF-7
  H4K16ac on genes not regulated by PHF20: no apparent H4K16ac signals were detected
[2]
  E2-induced gene activation on G9a depletion: drastically decreased
ERαK235me2
  ERαK235me2 level: increased upon E2 stimulation
MCF-7 cells
  number of E2-activated genes: 774 genes
[3]; G9a-depleted MCF-7
  levels of ERα on GREB1 and PR promoters: markedly reduced
[3]; PHF20 knockdown MCF-7
  ERα occupancy on the promoters of GREB1 and PR: no or minimal ERα occupancy was detected
[3]; control MCF-7
  ERα on the promoters of GREB1 and PR: E2-dependent increase of ERα on the promoters of GREB1 and PR
[4]; 10 nM E2, 3 or 6 h, PHF20 knockdown MCF-7
  E2-induced activation of GREB1 and PR on PHF20 depletion: drastically decreased
[4]; 10 nM E2, 3 h
  fold induction of GREB1, PR and TFF1: ~4 fold
[4]; 10 nM E2, 6 h
  fold induction of GREB1, PR and TFF1: ~6 fold

## ERα peptide (aa 227–244) bearing dimethylated K235: ERα peptide (aa 227–244) bearing dimethylated K235, biotinylated, used to probe the CADOR array (CTIDKNRRK(Me2)SCQACRLRK; cysteine pairing not given here; also: biotin, end not given here)
53BP1 Tudor
  recognition by 53BP1 Tudor: recognized the ERα peptide in a K235 methylation-dependent manner
S. pombe SPF30 Tudor
  recognition by S. pombe SPF30 Tudor: recognized the ERα peptide in a K235 methylation-dependent manner
[5]
  recognition by PHF20/PHF20L Tudor: recognized the ERα peptide in a K235 methylation-dependent manner

## ERαK235me2 peptide: ERα peptide dimethylated at K235; aa 228–239 in NMR titrations, biotinylated in pull-downs (TIDKNRRK(Me2)SCQA; also: biotinylated in pull-downs, end not given here; UniProt P03372 228-239, looked up, fragment)
[6]
  binding to PHF20 Tudor W97/Y103 mutants (pull-down): abolished the binding
PHF20 Tudor [7]
  interaction with PHF20 Tudor (pull-down): strong interaction
PHF20 Tudor [8]; 0.2 mM 15N-labelled PHF20 Tudor, 25 mM Tris-HCl pH 7.5, 150 mM NaCl, 298 K, 600 MHz
  chemical shift changes of PHF20 Tudor: large chemical shift changes
PHF20 Tudor [8]; HSQC titration, 0.2 mM PHF20 Tudor, pH 7.5, 298 K
  backbone amide resonances A95, W97, Y103, A105, V118, F120, D122-Q126 of PHF20 Tudor: significant shifting and broadening
